Experimental data published in US9622977B2, “Sustained release drug delivery system” (BIOPLUS LIFE SCIENCES PVT, LTD., priority 2008, dated 2017).
Like-named read-outs stand apart in the source and are kept apart here.

Tests used:
[1] = rat; for % Dose recovered: 6-CF, oral
in vivo = details: Sprague-Dawley, rat, po
Protocol: Rats were kept on fasting 12 hours before drug administration and until 24 hours post dosing. Water ad libitum was given throughout the study. […] Second, third, fourth, fifth and sixth group received oral administration of chitosan, thiolated chitosan, trimethyl chitosan, CARBOPOL® or METHOCEL® microspheres, respectively. […] Supernatant was collected and acetonitrile was added to precipitate the proteins. The precipitated proteins were settled by centrifugation at 2000 rpm for 15 min. The supernatant was collected and filtered through a 0.45 μm filter into volumetric flask and drug concentration was determined by spectrofluorometric assay.

[2] = In vitro drug release study of microspheres (USP paddle); type: physicochemical; details: HCl buffer pH 1.2, first hr
Protocol: 900 ml of HCl buffer (pH 1.2) was used as dissolution medium for first hr and phosphate buffered saline (PBS, pH 6.8) was used for next 11 hrs. The dried microspheres were filled in hard gelatin capsules and were placed in dissolution vessels. 5 ml sample was withdrawn at various time intervals and volume of the media was replenished with an equal amount of dissolution media. The samples were then analyzed spectroflurometrically.

[3] = Acyclovir IR 400 mg single dose; From Ref. 35; cited from earlier work
Erythrocytes = experiment: Hemolytic toxicity assay; type: cell-based; details: 1 hr of incubation at 37°C, water = 100%
Protocol: The procedure from literature was followed to perform the hemolytic toxicity studies.^19 Blood from healthy donors was collected and anticogulated with 3% sodium citrate. Erythrocytes were separated from blood plasma by centrifugation (3000×g, 5 min) and suspended in phosphate buffer saline (PBS) of pH 7.4. […] 0.5 ml 2% w/v dispersion of microspheres formulations in PBS (pH 7.4) was added to 4.5 ml of normal saline and interacted with 1 ml RBC suspension. […] After 1 hr, mixture was centrifuged and supernatants were taken and diluted with an equal volume of normal saline and absorbance was taken at 540 nm against supernatant of normal saline diluted similarly as blank. The percentage hemolysis was thus determined for each sample by taking absorbance of water as 100% hemolytic sample.

[4] = oral; cited from earlier work

With `O=C(O)c1ccc2c(c1)C1(OC2=O)c2ccc(O)cc2Oc2cc(O)ccc21` [6-CF solution, 6-Carboxyfluorescein] the “% Dose recovered” value ([1]; 1. Stomach, 2 hr) was 52.2%, the “% Dose recovered” value ([1]; 1. Stomach, 6 hr) was 0% and the “% Dose recovered” value ([1]; 1. Stomach, 8 hr) was 0%. For the same compound, the “% Dose recovered” value ([1]; 1. Stomach, 10 hr) was 0%, the “% Dose recovered” value ([1]; 2. Duodenum, 2 hr) was 10.9% and the “% Dose recovered” value ([1]; 2. Duodenum, 4 hr) was 19.5%. The “% Dose recovered” value ([1]; 2. Duodenum, 6 hr) was 0%, the “% Dose recovered” value ([1]; 2. Duodenum, 8 hr) was 0% and the “% Dose recovered” value ([1]; 2. Duodenum, 10 hr) was 0%. The “% Dose recovered” value ([1]; 3. Jejunum, 2 hr) was 0%, the “% Dose recovered” value ([1]; 3. Jejunum, 4 hr) was 10.6% and the “% Dose recovered” value ([1]; 3. Jejunum, 6 hr) was 0%. The “% Dose recovered” value ([1]; 3. Jejunum, 8 hr) was 0%, the “% Dose recovered” value ([1]; 3. Jejunum, 10 hr) was 0% and the “% Dose recovered” value ([1]; 4. Jejunum, 2 hr) was 0%. For the same compound, the “% Dose recovered” value ([1]; 4. Jejunum, 4 hr) was 5.8%, the “% Dose recovered” value ([1]; 4. Jejunum, 6 hr) was 6.9% and the “% Dose recovered” value ([1]; 4. Jejunum, 8 hr) was 0%. The “% Dose recovered” value ([1]; 4. Jejunum, 10 hr) was 0%, the “% Dose recovered” value ([1]; 5. Jejunum, 2 hr) was 0% and the “% Dose recovered” value ([1]; 5. Jejunum, 4 hr) was 0%. The “% Dose recovered” value ([1]; 5. Jejunum, 6 hr) was 3.9%, the “% Dose recovered” value ([1]; 5. Jejunum, 8 hr) was 0% and the “% Dose recovered” value ([1]; 5. Jejunum, 10 hr) was 0%. For the same compound, the “% Dose recovered” value ([1]; 6. Ileum, 2 hr) was 0%, the “% Dose recovered” value ([1]; 6. Ileum, 4 hr) was 0% and the “% Dose recovered” value ([1]; 6. Ileum, 6 hr) was 0%. The “% Dose recovered” value ([1]; 6. Ileum, 8 hr) was 5.9%, the “% Dose recovered” value ([1]; 6. Ileum, 10 hr) was 0% and the “% Dose recovered” value ([1]; 7. Remaining Intestine, 2 hr) was 0%. For the same compound, the “% Dose recovered” value ([1]; 7. Remaining Intestine, 4 hr) was 0%, the “% Dose recovered” value ([1]; 7. Remaining Intestine, 6 hr) was 0% and the “% Dose recovered” value ([1]; 7. Remaining Intestine, 8 hr) was 0%. For the same compound, the “% Dose recovered” value ([1]; 7. Remaining Intestine, 10 hr) was 0% and the “% recovered from stomach following oral administration” value ([1]; time not stated) was “more than 30%”.
Compound `Nc1nc2c(ncn2COCCO)c(=O)[nH]1` [Acyclovir] has an AUC (in vivo) of 282 ± 28 ng·h/mL, a Cmax (in vivo; 5 mg/kg) of 53.1 ± 6.8 ng/mL and an MRT (in vivo; 5 mg/kg) of 5.4 ± 0.5 h. For the same compound, the bioavailability (in vivo; 5 mg/kg) was 100%, the “% drug released in first 1 hr” value [2] was 95.3±4.1% and the “Area under plasma concentration profile (AUC)” value [3] was 3307.5 ng·h/mL. For the same compound, the “Time to maximum plasma concentration (tmax)” value [3] was 1.4 h, the “% Hemolysis” value (Erythrocytes) was 10.2 ± 1.4% and the bioavailability [4] was 10-20%.
For `Cn1c(=O)c2[nH]cnc2n(C)c1=O` [theophylline], the bioavailability [4] is listed as 100%.
